# Data: patent US5710160A, “Diphenyl pyridyl ethane derivatives as PDE IV inhibitors” (Merck Frosst Canada, Inc., priority 1996, dated 1998)
# Target: T1, GST fusion protein of the human recombinant phosphodiesterase IVa (met-248) (Homo sapiens, UniProt P27815)
# T1 construct: GST-Met 248 PDE IVa; made in house; host or cells: Sf-9 insect cells (baculovirus expression system)
# Test: SPA based PDE activity assay (hydrolysis of cAMP to AMP)
# Assay type: biochemical
# Conditions: 100 nM cAMP; purified GST fusion protein, baculovirus/Sf-9; 10 min at 30° C
# Method: Phosphodiesterase Scintillation Proximity Assay
# CHO-K1 cells were lysed by sonication for 10 secs at a power setting of 50% (Braunsonic Model 2000) in an ice cold solution containing 50 mM Tris, pH 7.5; 1 mM EDTA; and 200 mM b-mercaptoethanol.
# The soluble and particulate fractions of the cell were obtained by centrifuging the sonicate for 90 min. at 100,000 x g at 4° C. PDE activity was measured in a solution containing 50 mM Tris, pH 7.5; 10 mM MgCl2; 1 mM EDTA; and 100 nM (or indicated) ^3 H-cAMP (100 ml final volume) in the presence of varying concentrations of inhibitor. The reaction mixture containing enzyme was incubated for 10 min. at 30° C. in 96-well View Plates (Packard), and terminated by the addition of 50 ml Phosphodiesterase Scintillation Proximity Assay (SPA) Beads (Amersham) containing 18 mM ZnSO4. The amount of ^3 H-cAMP hydrolysis was determined by counting the plates in a Wallac 1450 mBeta LSC counter.
# SPA based PDE activity assay protocol
# Compounds which inhibit the hydrolysis of cAMP to AMP by the type-IV cAMP-specific phosphodiesterases were screened in 96-well plate format as follows:
# In a 96 well-plate at 30° C. was added the test compound (dissolved in 2 ul DMSO), 188 ml of substrate buffer containing [2,8-^3 H] adenosine 3',5'-cyclic phosphate (cAMP, 100 nM to 50 μM), 10 mM MgCl2, 1 mM EDTA, 50 mM Tris, pH 7.5. The reaction was initiated by the addition of […] of human recombinant PDE-IV (the amount was controlled so that~10% product was formed in 10 min. at 30° C). The reaction was stopped after 10 min. by the addition of 1 mg of PDE-SPA beads (Amersham). The product AMP generated was quantified on a Microbeta 96-well plate counter. The signal in the absence of enzyme was defined as the background. 100% activity was defined as the signal detected in the presence of enzyme and DMSO with the background subtracted. Percentage of inhibition was calculated accordingly. IC50 value was approximated with a non-linear regression fit of the standard 4-parameter/multiple binding sites equation from a ten point titration.
# IC50 values shown in Table 2 were determined with 100 nM cAMP using the purified GST fusion protein of the human recombinant phosphodiesterase IVa (met-248) produced from a baculovirus/Sf-9 expression system.
# T1 sequence (P27815 248-886 limits assumed): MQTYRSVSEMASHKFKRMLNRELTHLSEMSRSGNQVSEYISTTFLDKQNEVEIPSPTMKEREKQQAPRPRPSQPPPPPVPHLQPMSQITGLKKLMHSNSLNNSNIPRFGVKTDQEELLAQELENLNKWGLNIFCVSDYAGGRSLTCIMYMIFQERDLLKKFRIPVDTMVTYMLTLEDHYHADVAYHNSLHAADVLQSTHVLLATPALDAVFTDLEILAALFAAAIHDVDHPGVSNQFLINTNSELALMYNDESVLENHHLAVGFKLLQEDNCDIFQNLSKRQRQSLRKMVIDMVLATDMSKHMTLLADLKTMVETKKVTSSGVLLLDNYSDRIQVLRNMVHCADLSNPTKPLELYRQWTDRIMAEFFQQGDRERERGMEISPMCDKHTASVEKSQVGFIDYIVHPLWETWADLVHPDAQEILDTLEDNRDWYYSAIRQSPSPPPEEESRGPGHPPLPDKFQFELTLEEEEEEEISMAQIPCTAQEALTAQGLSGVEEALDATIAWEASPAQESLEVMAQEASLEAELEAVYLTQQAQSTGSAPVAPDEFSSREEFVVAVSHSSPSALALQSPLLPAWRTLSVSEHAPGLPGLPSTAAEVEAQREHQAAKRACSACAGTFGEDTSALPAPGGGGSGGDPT
row,SMILES,IC50 [nM]
1,"COc1ccc([C@H](Cc2ccncc2)c2ccc(C(=O)N3CCN(C)CC3)cc2)cc1OC1CCCC1 [Example 1, (R)-4-{2-(3-Cyclopentyloxy-4-methoxyphenyl)-2-[4-(4-methylpiperazinocarbonyl)pheny]lethyl}pyridine]",0.8
2,"COc1ccc([C@H](Cc2ccncc2)c2ccc(C(=O)N3CCCC3)cc2)cc1OC1CCCC1 [Example 2, (R)-4-[2-(3-Cyclopentyloxy-4-methoxyphenyl)-2-(4-pyrrolidinocarbonylphenyl)ethyl]pyridine]",1
3,"COc1ccc([C@H](Cc2ccncc2)c2ccc(C=NO)cc2)cc1OC1CCCC1 [Example 3, (R)-4-[1-(3-Cyclopentyloxy-4-methoxyphenyl)-2-(4-pyridyl)ethyl]benzaldehyde oxime]",3
4,"COc1ccc([C@H](Cc2ccncc2)c2ccc(-c3nnn[nH]3)cc2)cc1OC1CCCC1 [Example 4, (R)-4-{2-(3-Cyclopentyloxy-4-methoxyphenyl)-2-[4-(tetrazol-5-yl)phenyl]ethyl}pyridine]",2
5,"COc1ccc([C@H](Cc2ccncc2)c2ccc(C(C)O)cc2)cc1OC1CCCC1 (stereo partly drawn) [Example 5, (R)-4-{2-(3-Cyclopentyloxy-4-methoxyphenyl)-2-[4-(1-hydroxyethyl)phenyl]ethyl}pyridine]",2
6,"COc1ccc([C@H](Cc2ccncc2)c2ccc(C(C)=O)cc2)cc1OC1CCCC1 [Example 6, (R)-4-[2-(3-Cyclopentyloxy-4-methoxyphenyl)-2-(4-acetylphenyl)ethyl]pyridine]",3

# System: right atrial and papillary muscles
# Test: Effects on cardiac muscle in vitro
# Parameters: species or system guinea pigs
# Conditions: reference PDE inhibitors; no concentration given
# Source text: Right atrial and papillary muscles were dissected out from the hearts of guinea pigs and suspended in organ baths for measuring the rate (chronotropic) of spontaneously beating atria and force (inotropic) of the electrically stimulated papillary muscle.
row,SMILES,direct (chronotropic and inotropic) effects in these preparations
1,Cc1[nH]c(=O)c(C#N)cc1-c1ccncc1 [milrinone],positive chronotropic and inotropic effects
2,COc1ccc(C2CNC(=O)C2)cc1OC1CCCC1 (stereo not drawn) [rolipram],do not have any direct effects

# System: right atrial and papillary muscles
# Test: not given
# Conditions: non-specific PDE inhibitor; general statement; cited from earlier work
row,SMILES,cardiovascular changes
1,Cn1c(=O)c2[nH]cnc2n(C)c1=O [theophylline],significant cardiovascular changes such as tachycardia
